Experimental data reported in US3959077A (priority 1972, dated 1976).
Like-named read-outs stand apart in the source and are kept apart here.

Tests used:
[1] = system: binding enzyme exhibiting Na-K-ATPase activity; assay: enzymatic isotope displacement assay: displacement of H^3 ouabain from the binding enzyme; parameters: species or system guinea pig; details: 0, 2.5, 5, 10, 20 Ng (or ug of digitalis leaf) per 50 μl; FIG. 4
Protocol: The serum extract and aqueous buffered mixtures having known concentrations of cardiac glycosides (hereinafter referred to as standard samples) are incubated with aqueous buffered mixtures containing the novel binding enzyme of the present invention in the presence of radioactive isotope cardiac glycoside, magnesium and sodium ions, ATP a buffering agent and optionally, but preferably, a heavy metal chelating agent. It is preferably that potassium be eliminated from the reagents to optimize the sensitivity of the assay. Ten microliters of the extract are sufficient for the incubation, although smaller and larger amounts may be employed. The binding enzyme is prepared by reacting a binding enzyme precursor or binding material (described below) with a high energy phosphate compound such as adenosine triphosphate (ATP), adenosine diphosphate (ADP), guanosine triphosphate (GTP), guanosine diphosphate (GDP) and the like. The reaction is preferably conducted in the presence of magnesium and/or sodium, preferably both. The reaction is conveniently carried out in the incubation or displacement step reaction mixture. About 4 to 100 micromoles of the high energy phosphate compound are reacted with each amount of the binding enzyme precursor prepared from one gram of animal tissue; although lesser or greater amounts of a high energy phosphate compound may be used. […]
In the above assay, the binding enzyme binds tritiated ouabain in the presence of Na and Mg. […] After centrifugation, the unbound H^3 ouabain in the supernatant fraction is counted by liquid scintillation and compared with known counts for standard concentrations of digoxin. An increase in supernatant radioactivity indicates uptake of digoxin or other cardiac glycoside at the expense of tritiated ouabain. […]
A solution of 250,000 Ng (nanograms) of digoxin per ml of methanol is gravimetrically prepared. […] 50ul of each supernatant is then counted by liquid scintillation. […]

[2] = serum cardiac glycoside levels in patients, measured with the present assay; format: in vivo, human; details: 21 patients with arrhythmias on digoxin therapy; serum drawn at least 6 hours after last dose
Protocol: Digoxin is extracted from patient serum or from plasma as follows: 5ml of serum or plasma is shaken for 30 seconds with 30ml of Chloroform in a 40ml glass-stoppered conical centrifuge tube, and centrifuged for 2 minutes at 1800 rpm (750 × g at tip). The milky top layer and fatty plug are removed with a teflon-tipped aspirator. The bottom chloroform layer is decanted into another 40ml centrifuge tube and evaporated to dryness in 3 to 5 minutes on a Buchler Evapomixer at 60°C. under vacuum. The digoxin thus extracted is rinsed down to the bottom of the tube with 1ml of ethyl ether and evaporated to dryness in a 50°C. water bath under a stream of filtered air.
. The sample is mixed on a Vari-whirl vortex mixer for 20 seconds at full speed and centrifuged for 3 minutes at 1800 rpm. The top toluene layer is removed with a narrow, drawn-out pasteur pipet, and discarded. Duplicate 50μl tris aliquots of the bottom tris layer are then assayed in the same manner as for the standards described in Example 3. No quench correction is required. Only raw 1 or 2 minute counts need be used and the counts of duplicate aliquots are averaged. The amount of digoxin found in each aliquot is obtained by comparison with that day's standard curve.
Serum digoxin levels were measured in 83 nontoxic patients on the medical wards of the Los Angeles County-University of Southern California Medical Center. […]

[3] = cited from earlier work
antibody = details: cited from earlier work
clinical = format: in vivo, human
Protocol: A person was admitted to this center 3 hours after having ingested 100 tablets of 0.1mg of digitoxin. They had vomited once. Physical examination was unrevealing. […] The P-R interval was 0.24 seconds. Serum was obtained for assay, urine collection was begun, and vigorous gastric lavage was instituted.
Apparent serum digitoxin on admission was 51.0 Ng/ml, a value close to that of another patient whose atrial fibrillation was under satisfactory control on digitoxin 0.1mg/day. […] The results from both the serum and gastric material were in the hands of ward personnel within 3 hours.
On the basis of this assay information, especially the findings from the gastric material, it was decided by those caring for the patient that they might just have passed the stage where serum levels were highest. Since they were not severe, and since only mild AV block was present, it was felt that they might do well subsequently without further intervention. They were carefully watched, and in fact recovered without further therapy. […]. Four control urine specimens and six specimens at gastric contents from persons not receiving any digitalis gave negative results.

[4] = cited from earlier work; remark: listed apart in the source

SMILES	displaced H^3 ouabain from the enzyme (potency) [1]	average serum level (1 S.D.) [2]	Risk of Arrhythmias ([3]; 1.4 nanograms per ml of blood serum)	Risk of Arrhythmias ([3]; 2 nanograms per ml of blood serum)	Risk of Arrhythmias ([3]; 2.9 nanograms per ml of blood serum)	Risk of Arrhythmias ([3]; 4 nanograms per ml of blood serum)	Risk of Arrhythmias ([3]; 5 nanograms per ml of blood serum)	specificity of the immunoassay for digoxin over digitoxin (antibody)	average toxic level by immunoassay (antibody; toxic patients, serum digoxin)	cardiac glycosides in gastric lavage material, equivalent of digitoxin (clinical; aliquot of 4 liters of lavage material)	concentration at 3 h (clinical; human, in vivo, po, 3 hours after ingestion of 100 tablets of 0.1 mg, read-out: apparent serum digitoxin on admission)	concentration at 24 h (clinical; human, in vivo, po, first subsequent day, read-out: subsequent daily serum digitoxin level)	concentration at 48 h (clinical; human, in vivo, po, second subsequent day, read-out: subsequent daily serum digitoxin level)	concentration at 24 h (clinical; human, in vivo, po, spot urine, first of the two days after admission, read-out: apparent digitoxin concentration in urine)	concentration at 48 h (clinical; human, in vivo, po, spot urine, second of the two days after admission, read-out: apparent digitoxin concentration in urine)	concentration at 72 h (clinical; human, in vivo, po, third subsequent day, read-out: subsequent daily serum digitoxin level)	amount removed by lavage (clinical; of the 10 mg ingested)	reported therapeutic serum levels relative to those of digoxin [4]
C[C@H]1O[C@@H](O[C@H]2[C@@H](O)C[C@H](O[C@H]3[C@@H](O)C[C@H](O[C@H]4CC[C@@]5(C)[C@H](CC[C@@H]6[C@@H]5C[C@@H](O)[C@]5(C)[C@@H](C7=CC(=O)OC7)CC[C@]65O)C4)O[C@@H]3C)O[C@@H]2C)C[C@H](O)[C@@H]1O [digoxin]	approximately equal potency	3.10 ± 0.76 ng/mL	about 10%	about 25%	about 50%	about 66%	about 80%	10 fold	3.3 ± 1.5 ng/mL	–	–	–	–	–	–	–	–	–
C[C@H]1O[C@@H](O[C@H]2[C@@H](O)C[C@H](O[C@H]3[C@@H](O)C[C@H](O[C@H]4CC[C@@]5(C)[C@H](CC[C@@H]6[C@@H]5CC[C@]5(C)[C@@H](C7=CC(=O)OC7)CC[C@]65O)C4)O[C@@H]3C)O[C@@H]2C)C[C@H](O)[C@@H]1O [digitoxin]	approximately equal potency	–	–	–	–	–	–	–	–	1.2 µg/mL	51 ng/mL	41 ng/mL	31.6 ng/mL	848 ng/mL	512 ng/mL	24.4 ng/mL	4.8 mg	10 to 20 times
C[C@@H]1O[C@@H](O[C@H]2C[C@@H](O)[C@]3(CO)[C@H]4[C@H](O)C[C@]5(C)[C@@H](C6=CC(=O)OC6)CC[C@]5(O)[C@@H]4CC[C@]3(O)C2)[C@H](O)[C@H](O)[C@H]1O [ouabain]	approximately equal potency	–	–	–	–	–	–	–	–	–	–	–	–	–	–	–	–	–
